The record followed here is ChEMBL document CHEMBL1151836, “Citronamides A and B, tetrapeptides from the Australian sponge Citronia astra” (J Nat Prod, 2009).

One series deals with Trypanosoma brucei. In words: Antitrypanosomal activity against Trypanosoma brucei BS427 upto 120 uM after 48 hrs by alamar blue assay. The format is functional, organism-based. A general note: Alamar Blue is a resazurin reagent that responds to reducing activity.
A further series deals with Staphylococcus. Nature of the series: Antibacterial activity against Staphylococcus albus epidermis strain at 800 ug/mL after 19 to 20 hrs by agar hole punch diffusion assay. The format is functional, organism-based.
The next series concerns HeLa. Nature of the series: Cytotoxicity against human HeLa cells upto 120 uM after 72 hrs by alamar blue assay. Type of series: functional, cell-based.
A further series concerns Plasmodium falciparum. In words: Antimalarial activity against chloroquine-resistant Plasmodium falciparum Dd2 at 120 uM after 72 hrs by DAPI stain. The format is functional.
The next series relates to Saccharomyces cerevisiae. In words: Antibacterial activity against Saccharomyces cerevisiae after 19 to 20 hrs by agar hole punch diffusion assay. The format is functional.
For a further series, the system named is Escherichia coli. In words: Antibacterial activity against Escherichia coli K-12 after 19 to 20 hrs by agar hole punch diffusion assay. Type of series: functional.
The subject of another series is HEK293. Nature of the series: Cytotoxicity against HEK293 cells upto 120 uM after 72 hrs by alamar blue assay. The format is cell-based. To be noted: human, hek293, 72 h.

Structures are written as SMILES. Values after ≈ are worked out from the molar mass of the structure shown. Active and inactive are the calls of the source. The calls are words filed in the database; no cut-off is given here.

As to `CC[C@@H](C)[C@@H](NC(=O)[C@@H](NC(=O)[C@H](NC(=O)CCCCC(N)Cc1ccc(OC)cc1)[C@@H](O[C@@H]1O[C@@H](C(=O)O)[C@@H](O)[C@H](OC(N)=O)[C@H]1O)c1c[nH]c(=O)[nH]1)[C@@H](C)CC)C(=O)O` (some centres not stated) [CITRONAMIDE A], the outcome in the series on Trypanosoma brucei, in the series with Staphylococcus and in the series with HeLa was inactive. Also, the results for the Activity with Plasmodium falciparum and in the series with HEK293 were 24% and “Not Active”, respectively. Besides, the MIC in the series on Saccharomyces cerevisiae came out at 8 µg/mL (≈ 9.24 µM); with Escherichia coli it was 80 µg/mL (≈ 92.4 µM).

As a reminder, the MIC is the lowest concentration that inhibits growth of the organism.
